Key:
[1] = Encapsulation of efavirenz in polymeric micelles (apparent solubility, solubility factor); type: physicochemical; settings: 37° C.
Protocol: The encapsulation capacity of the micelles was studied with the antiretroviral efavirenz. For this, 1%, 3%, 5% and 10% w/v CS-N52 and 1% CS-N74 polymeric micelles were prepared and 2-10 mg of drug per mL of micellar suspension added. The suspension was magnetically stirred at 37° C. (48 h), filtered (1.2 μm, Minisart® NML cellulose acetate, Sartorius AG, Goettingen, Germany) to remove insoluble drug, the filtrate diluted (1/10) in distilled water and 10 mL extracted with dichloromethane (3×20 mL). The organic solution was evaporated under vacuum, re-dissolved in methanol and the absorbance measured in microplate spectrophotometer (λ=248 nm). Then, the EFV concentration was calculated by interpolation in a calibration curve in the range of 0.02-80 μg/mL (R^2>0.9999). Finally, the solubility factor (fs) was determined according to
where Sa is the apparent solubility of active agent (herein: efavirenz) in the polymeric micelles and Si is the intrinsic solubility of the active agent (efavirenz) in a polymer-free medium (7 μg/mL), at 37° C. Measurements were performed in triplicate and the results are expressed as the mean±S.D. Efavirenz-loaded micelles before and after ionotropic crosslinking were characterized for Dh, PDI and Z-potential by DLS (see above).

[2] = test system: Caco2 cell line; test: In vitro cell compatibility, MTT method; type: cell-based; settings: crosslinker, versus only-medium control (100% viability)
Protocol: Since these polymeric micelles are envisioned for the administration by mucosal routes, including the oral one, their cell compatibility before and after corona-crosslinking was evaluated in a Caco2 cell line (ATCC® HTB-37™) obtained from American Type Culture Collection (ATCC®, Manassas, Va., USA).
In exemplary embodiments, cells were cultured in Eagle's Minimum Essential Medium (EMEM, Life Technologies Corp., Carlsbad, Calif., USA) supplemented with L-glutamine, 10% heat-inactivated fetal bovine serum (FBS, Sigma-Aldrich) and penicillin/streptomycin (5 mL of a commercial mixture of 100 U/mL of penicillin+100 μg/mL streptomycin per 500 mL medium, Sigma-Aldrich) and maintained at 37° C. in a humidified 5% CO2 atmosphere and split 1:10 into fresh media every three-four days. Cells were harvested by trypsinization (trypsin-EDTA 0.25%, Sigma-Aldrich) and the number of live cells was quantified the trypan blue (1%, Sigma-Aldrich) exclusion assay and a Neubauer chamber. To determine the compatibility of the polymeric micelles (expressed as percentage with respect to a blank incubated with culture medium), cells were cultured in 96-well plates (5×10^3 cells/well) and allowed to attach over 72 h. The medium in each well was replaced by different samples (concentration between 0.1%, 0.3% and 0.5% in PBS+medium) and cells incubated over 4 and 24 h. […]

| Si (intrinsic solubility in a polymer-free medium) [1] | Structure (SMILES) | viability of Caco2 cells (MTT) [2] |
| --- | --- | --- |
| 7 µg/mL | O=C1Nc2ccc(Cl)cc2[C@@](C#CC2CC2)(C(F)(F)F)O1 [efavirenz] |  |
|  | O=P(O)(O)OP(=O)(O)OP(=O)(O)O [TPP, sodium tripolyphosphate] | did not affect the viability of the cells |

Reference: patent publication US20180311161A1, “AMPHIPHILIC POLYMERS ENCAPSULATING THERAPEUTICALLY ACTIVE AGENTS” (TECHNION RESEARCH & DEVELOPMENT FOUNDATION LIMITED, priority 2015, published 2018)
